Assay results published in PubChem BioAssay (NCI).
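The compound was tested at five concentrations on cells cultured in 96-well plates, with a 48-hour exposure period. TGI: total growth inhibition.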

How the values were obtained:
Experiment in all cases: NCI tumour cell line growth inhibition, 48 h
A498 renal = tested on: A498 renal
DLD-1 colon = tested on: DLD-1 colon
DMS 114 small cell lung = tested on: DMS 114 small cell lung
DMS 273 small cell lung = tested on: DMS 273 small cell lung
K-562 leukemia = tested on: K-562 leukemia
KM20L2 colon = tested on: KM20L2 colon
LXFL 529 NSCLC = tested on: LXFL 529 NSCLC
M19-MEL melanoma = tested on: M19-MEL melanoma
MOLT-4 leukemia = tested on: MOLT-4 leukemia
OVCAR-5 ovarian = tested on: OVCAR-5 ovarian
RXF-631 renal = tested on: RXF-631 renal
SNB-78 CNS = tested on: SNB-78 CNS
XF 498 CNS = tested on: XF 498 CNS
HOP-18 NSCLC = tested on: HOP-18 NSCLC
P388/ADR leukemia = tested on: P388/ADR leukemia
PC-3 prostate = tested on: PC-3 prostate

Row | Structure (SMILES) | TGI (A498 renal) [µM] | TGI (DLD-1 colon) [µM] | TGI (DMS 114 small cell lung) [µM] | TGI (DMS 273 small cell lung) [µM] | TGI (K-562 leukemia) [µM] | TGI (KM20L2 colon) [µM] | TGI (LXFL 529 NSCLC) [µM] | TGI (M19-MEL melanoma) [µM] | TGI (MOLT-4 leukemia) [µM] | TGI (OVCAR-5 ovarian) [µM] | TGI (RXF-631 renal) [µM] | TGI (SNB-78 CNS) [µM] | TGI (XF 498 CNS) [µM] | TGI (HOP-18 NSCLC) [µM] | TGI (P388/ADR leukemia) [µM] | TGI (PC-3 prostate) [µM]
1 | C=CCCN1CCc2c([nH]c3ccccc23)C1C(=O)O (stereo not drawn) | > 100 | > 100 | > 100 | > 100 | > 100 | > 100 | > 100 | > 100 | > 100 | > 100 | > 100 | > 100 | > 100 | – | – | –
2 | N#CC(NC12CC3CC(CC(C3)C1)C2)c1ccccc1C(F)(F)F (stereo not drawn) | – | > 100 | > 100 | > 100 | > 100 | > 100 | > 100 | > 100 | > 100 | > 100 | – | – | > 100 | > 100 | – | –
3 | CC1NC(=O)CC(c2ccccc2)N(N=O)C1c1ccccc1 (stereo not drawn) | 52.3 | > 100 | – | > 75.1 | > 88.5 | 40 | – | > 100 | > 100 | > 100 | – | > 91.8 | 75.3 | > 100 | > 60.2 | –
4 | COC1C=CC(O)C(CO)O1 (stereo not drawn) | – | > 100 | – | – | > 100 | > 100 | > 100 | > 100 | > 100 | > 100 | – | > 100 | > 100 | – | – | –
5 | NC(N)=N/N=C/c1c[nH]c2ccccc12 | – | > 100 | > 100 | > 100 | > 100 | > 100 | > 100 | – | > 100 | > 100 | – | > 100 | – | > 100 | – | –
6 | O=P(Nc1ccc(Cl)cc1)(Oc1ccccc1)N(CCCl)CCCl (stereo not drawn) | > 100 | > 100 | > 100 | > 100 | > 100 | > 100 | > 100 | > 100 | > 100 | > 100 | > 100 | > 100 | – | > 100 | – | –
7 | CCOCc1nc2c(OC)cc(-c3nc4ccc(N5CCN(C)CC5)cc4[nH]3)c(OC)c2[nH]1 | > 100 | – | – | – | > 100 | – | – | – | 76.6 | > 100 | – | – | – | – | – | > 100
